This note sets out measurements from patent publication US20240366639A1, “HETEROCYCLIC GLP-1 AGONISTS” (GASHERBRUM BIO, INC., priority 2021, published 2024).

For this assay, the target named is T1, GLP-1 Receptor (GLP1R) (Homo sapiens, UniProt P43220).
T1 construct: host or cells: HEK293/GLP1R/CRE-LUC
The assay is described as follows: GLP-1R agonist cAMP stimulation assay (Method 3). It is filed as cell-based. To be noted: HEK293/GLP1R/CRE-LUC cells (HDB), Method 3, 30 min incubation. The procedure, abridged: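 HEK293 CRE-Luc cells stably expressing GLP-1R (1000 cells/well) were exposed to ½-log serially diluted compound in DPBS with 0.5 mM IBMX and 0.1% BSA for 30 min at 37 °C. cAMP was quantified by HTRF (cAMP-d2/anti-cAMP cryptate), 1 h at room temperature, read at 665/615 nm.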

Setting [1] is: read-out: GLP1R cAMP Stimulation DR: EC50 (nM) [Species: Human, Assay Cell Line: HDB].
Where [2] appears, read: read-out: GLP1R cAMP Stimulation DR: pEC50 (M) [Species: Human, Assay Cell Line: HDB] (converted).

Read-outs that look alike come from different tables or passages of the source.

T1 sequence (P43220 24-463): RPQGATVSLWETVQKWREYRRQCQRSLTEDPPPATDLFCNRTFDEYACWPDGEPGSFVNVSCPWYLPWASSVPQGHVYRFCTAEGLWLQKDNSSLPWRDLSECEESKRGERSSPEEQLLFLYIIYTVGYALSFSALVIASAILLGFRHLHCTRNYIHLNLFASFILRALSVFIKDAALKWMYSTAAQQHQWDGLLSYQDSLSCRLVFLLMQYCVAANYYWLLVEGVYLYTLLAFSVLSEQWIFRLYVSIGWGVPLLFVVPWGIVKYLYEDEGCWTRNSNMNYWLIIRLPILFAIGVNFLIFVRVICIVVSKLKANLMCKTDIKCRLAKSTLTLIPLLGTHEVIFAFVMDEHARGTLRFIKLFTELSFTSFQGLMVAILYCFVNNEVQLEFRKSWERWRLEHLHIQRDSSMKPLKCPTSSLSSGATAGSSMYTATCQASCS

On to `CCP(=O)(CC)c1ccc(-n2ccn(-c3c4c(nn3-c3cc(C)c(F)c(C)c3)CCN(C(=O)c3cc5cc(C6CCOCC6)ccc5n3C3(c5noc(=O)[nH]5)CC3)[C@H]4C)c2=O)cc1NC` [Compound 135a, (S)-3-(1-(2-(3-(3-(4-(diethylphosphoryl)-3-(methylamino)phenyl)-2-oxo-2,3-dihydro-1H-imidazol-1-yl)-2-(4-fluoro-3,5-dimethylphenyl)-4-methyl-4,5,6,7-tetrahydro-2H-pyrazolo[4,3-c]pyridine-5-carbonyl)-5-(tetrahydro-2H-pyran-4-yl)-1H-indol-1-yl)cyclopropyl)-1,2,4-oxadiazol-5(4H)-one], for which the EC50 is under 0.1 nM under setting [1] and at most 0.1 nM under setting [2].

With `CCP(=O)(CC)c1ccc(-n2ccn(-c3c4c(nn3-c3cc(C)c(F)c(C)c3)CCN(C(=O)c3cc5cc(C6CCOCC6)ccc5n3[C@@]3(c5noc(=O)[nH]5)C[C@@H]3C)[C@H]4C)c2=O)cc1OC(F)F` [Compound 136a, 3-((1S,2S)-1-(2-((S)-3-(3-(4-(diethylphosphoryl)-3-(difluoromethoxy)phenyl)-2-oxo-2,3-dihydro-1H-imidazol-1-yl)-2-(4-fluoro-3,5-dimethylphenyl)-4-methyl-4,5,6,7-tetrahydro-2H-pyrazolo[4,3-c]pyridine-5-carbonyl)-5-(tetrahydro-2H-pyran-4-yl)-1H-indol-1-yl)-2-methylcyclopropyl)-1,2,4-oxadiazol-5(4H)-one], the EC50 reads like this: under setting [1], 0.2 to 0.5 nM; under setting [2], 0.1 to 1 nM.

For the molecule `CCP(=O)(CC)c1ccc(-n2ccn(-c3c4c(nn3-c3cc(C)c(F)c(C)c3)CCN(C(=O)c3cc5cc(C6CCOCC6)ccc5n3[C@@]3(c5noc(=O)[nH]5)C[C@@H]3C)[C@H]4C)c2=O)cc1N` [Compound 138a, 3-((1S,2S)-1-(2-((S)-3-(3-(3-amino-4-(diethylphosphoryl)phenyl)-2-oxo-2,3-dihydro-1H-imidazol-1-yl)-2-(4-fluoro-3,5-dimethylphenyl)-4-methyl-4,5,6,7-tetrahydro-2H-pyrazolo[4,3-c]pyridine-5-carbonyl)-5-(tetrahydro-2H-pyran-4-yl)-1H-indol-1-yl)-2-methylcyclopropyl)-1,2,4-oxadiazol-5(4H)-one], the EC50 is, setting by setting: under setting [1], under 0.1 nM; under setting [2], at most 0.1 nM.

Consider `CCP(=O)(CC)c1ncc(-n2ccn(-c3c4c(nn3-c3cc(C)c(F)c(C)c3)CCN(C(=O)c3cc5cc(C6CCOCC6)ccc5n3[C@@]3(c5noc(=O)[nH]5)C[C@@H]3C)[C@H]4C)c2=O)cc1NC` [Compound 139a, 3-((1S,2S)-1-(2-((S)-3-(3-(6-(diethylphosphoryl)-5-(methylamino)pyridin-3-yl)-2-oxo-2,3-dihydro-1H-imidazol-1-yl)-2-(4-fluoro-3,5-dimethylphenyl)-4-methyl-4,5,6,7-tetrahydro-2H-pyrazolo[4,3-c]pyridine-5-carbonyl)-5-(tetrahydro-2H-pyran-4-yl)-1H-indol-1-yl)-2-methylcyclopropyl)-1,2,4-oxadiazol-5(4H)-one], for which the EC50 is, setting by setting: under setting [1], under 0.1 nM; under setting [2], at most 0.1 nM.

For `CCP(=O)(CC)c1c(C)cc(-n2ccn(-c3c4c(nn3-c3cc(C)c(F)c(C)c3)CCN(C(=O)c3cc5cc(C6CCOCC6)ccc5n3[C@@]3(c5noc(=O)[nH]5)C[C@@H]3C)[C@H]4C)c2=O)cc1NC` [Compound 140a, 3-((1S,2S)-1-(2-((S)-3-(3-(4-(diethylphosphoryl)-3-methyl-5-(methylamino)phenyl)-2-oxo-2,3-dihydro-1H-imidazol-1-yl)-2-(4-fluoro-3,5-dimethylphenyl)-4-methyl-4,5,6,7-tetrahydro-2H-pyrazolo[4,3-c]pyridine-5-carbonyl)-5-(tetrahydro-2H-pyran-4-yl)-1H-indol-1-yl)-2-methylcyclopropyl)-1,2,4-oxadiazol-5(4H)-one], the EC50 runs as follows: under setting [1], 0.5 to 5 nM; under setting [2], 0.1 to 1 nM.

As to `CNc1cc(-n2ccn(-c3c4c(nn3-c3cc(C)c(F)c(C)c3)CCN(C(=O)c3cc5cc(C6CCOCC6)ccc5n3[C@@]3(c5noc(=O)[nH]5)C[C@@H]3C)[C@H]4C)c2=O)ccc1P(=O)(C(C)C)C(C)C` [Compound 141a, 3-((1S,2S)-1-(2-((S)-3-(3-(4-(diisopropylphosphoryl)-3-(methylamino)phenyl)-2-oxo-2,3-dihydro-1H-imidazol-1-yl)-2-(4-fluoro-3,5-dimethylphenyl)-4-methyl-4,5,6,7-tetrahydro-2H-pyrazolo[4,3-c]pyridine-5-carbonyl)-5-(tetrahydro-2H-pyran-4-yl)-1H-indol-1-yl)-2-methylcyclopropyl)-1,2,4-oxadiazol-5(4H)-one], the EC50 is, setting by setting: under setting [1], under 0.1 nM; under setting [2], at most 0.1 nM.

For the molecule `CCP(=O)(CC)c1c(F)cc(-n2ccn(-c3c4c(nn3-c3cc(C)c(F)c(C)c3)CCN(C(=O)c3cc5cc(C6CCOCC6)ccc5n3[C@@]3(c5noc(=O)[nH]5)C[C@@H]3C)[C@H]4C)c2=O)cc1NC` [Compound 143a, 3-((1S,2S)-1-(2-((S)-3-(3-(4-(diethylphosphoryl)-3-fluoro-5-(methylamino)phenyl)-2-oxo-2,3-dihydro-1H-imidazol-1-yl)-2-(4-fluoro-3,5-dimethylphenyl)-4-methyl-4,5,6,7-tetrahydro-2H-pyrazolo[4,3-c]pyridine-5-carbonyl)-5-(tetrahydro-2H-pyran-4-yl)-1H-indol-1-yl)-2-methylcyclopropyl)-1,2,4-oxadiazol-5(4H)-one], the EC50 by setting is: under setting [1], 0.1 to 0.2 nM; under setting [2], 0.1 to 1 nM.

With `CCP(=O)(CC)c1cc(F)c(-n2ccn(-c3c4c(nn3-c3cc(C)c(F)c(C)c3)CCN(C(=O)c3cc5cc(C6CCOCC6)ccc5n3[C@@]3(c5noc(=O)[nH]5)C[C@@H]3C)[C@H]4C)c2=O)cc1NC` [Compound 144a, 3-((1S,2S)-1-(2-((S)-3-(3-(4-(diethylphosphoryl)-2-fluoro-5-(methylamino)phenyl)-2-oxo-2,3-dihydro-1H-imidazol-1-yl)-2-(4-fluoro-3,5-dimethylphenyl)-4-methyl-4,5,6,7-tetrahydro-2H-pyrazolo[4,3-c]pyridine-5-carbonyl)-5-(tetrahydro-2H-pyran-4-yl)-1H-indol-1-yl)-2-methylcyclopropyl)-1,2,4-oxadiazol-5(4H)-one], the EC50 by setting is: under setting [1], under 0.1 nM; under setting [2], at most 0.1 nM.

For `CCP(=O)(CC)c1ccc(-n2ccn(-c3c4c(nn3-c3cc(C)c(F)c(C)c3)CCN(C(=O)c3cc5cc(C6CCOCC6)ccc5n3[C@@]3(c5noc(=O)[nH]5)C[C@@H]3C)[C@H]4C)c2=O)c(F)c1NC` [Compound 145a, 3-((1S,2S)-1-(2-((S)-3-(3-(4-(diethylphosphoryl)-2-fluoro-3-(methylamino)phenyl)-2-oxo-2,3-dihydro-1H-imidazol-1-yl)-2-(4-fluoro-3,5-dimethylphenyl)-4-methyl-4,5,6,7-tetrahydro-2H-pyrazolo[4,3-c]pyridine-5-carbonyl)-5-(tetrahydro-2H-pyran-4-yl)-1H-indol-1-yl)-2-methylcyclopropyl)-1,2,4-oxadiazol-5(4H)-one], the EC50 runs as follows: under setting [1], under 0.1 nM; under setting [2], at most 0.1 nM.

As to `CCP(=O)(CC)c1ccc(-n2ccn(-c3c4c(nn3-c3cc(C)c(F)c(C)c3)CCN(C(=O)c3cc5cc([C@@H]6CCOC(C)(C)C6)ccc5n3[C@@]3(c5noc(=O)[nH]5)C[C@@H]3C)[C@H]4C)c2=O)cc1NC` [Compound 146a, 3-((1S,2S)-1-(2-((S)-3-(3-(4-(diethylphosphoryl)-3-(methylamino)phenyl)-2-oxo-2,3-dihydro-1H-imidazol-1-yl)-2-(4-fluoro-3,5-dimethylphenyl)-4-methyl-4,5,6,7-tetrahydro-2H-pyrazolo[4,3-c]pyridine-5-carbonyl)-5-((R)-2,2-dimethyltetrahydro-2H-pyran-4-yl)-1H-indol-1-yl)-2-methylcyclopropyl)-1,2,4-oxadiazol-5(4H)-one], the EC50 was under 0.1 nM under setting [1] and at most 0.1 nM under setting [2].

Take `CCP(=O)(CC)c1ccc(-n2ccn(-c3c4c(nn3-c3cc(C)c(F)c(C)c3)CCN(C(=O)c3cc5cc([C@H]6CCOC(C)(C)C6)ccc5n3[C@@]3(c5noc(=O)[nH]5)C[C@@H]3C)[C@H]4C)c2=O)cc1NC` [Compound 146b, 3-((1S,2S)-1-(2-((S)-3-(3-(4-(diethylphosphoryl)-3-(methylamino)phenyl)-2-oxo-2,3-dihydro-1H-imidazol-1-yl)-2-(4-fluoro-3,5-dimethylphenyl)-4-methyl-4,5,6,7-tetrahydro-2H-pyrazolo[4,3-c]pyridine-5-carbonyl)-5-((S)-2,2-dimethyltetrahydro-2H-pyran-4-yl)-1H-indol-1-yl)-2-methylcyclopropyl)-1,2,4-oxadiazol-5(4H)-one]: the EC50 was under 0.1 nM under setting [1] and at most 0.1 nM under setting [2].

For the molecule `Cc1cc(-n2nc3c(c2-n2ccn(Cc4cccc(P(C)(C)=O)c4)c2=O)[C@H](C)N(C(=O)c2cc4cc(C5CCOCC5)ccc4n2[C@@]2(c4noc(=O)[nH]4)C[C@@H]2C)CC3)cc(C)c1F` [Compound 147a, 3-((1S,2S)-1-(2-((S)-3-(3-(3-(dimethylphosphoryl)benzyl)-2-oxo-2,3-dihydro-1H-imidazol-1-yl)-2-(4-fluoro-3,5-dimethylphenyl)-4-methyl-4,5,6,7-tetrahydro-2H-pyrazolo[4,3-c]pyridine-5-carbonyl)-5-(tetrahydro-2H-pyran-4-yl)-1H-indol-1-yl)-2-methylcyclopropyl)-1,2,4-oxadiazol-5(4H)-one], the EC50 reads like this: under setting [1], 0.5 to 5 nM; under setting [2], 1 to 10 nM.
